This is an account of results in patent US20040023276A1, “LXR-ligand induced genes and proteins” (priority 2002, published 2004).

The subject of the assay is LXRLI1 gene. The assay can be described thus: Microarray gene expression profiles of cells treated with LXR-ligand. In kind it is cell-based, human. To be noted: THP-1 cells, primary macrophages, primary hepatocytes; APD 0.001-0.1 μM, 6-24 hours; treated vs. untreated. An excerpt: To identify human transcripts up or down regulated by LXR-ligand, FlexJet™ microarrays representing either 25,000 Unigene clusters were hybridized to a mixture of cRNAs prepared from samples obtained from untreated versus treated cells of various types. Microarrays, and materials and methods for preparing hybridization samples from purified RNA, hybridizing the microarrays, detecting hybridization signals, and data analysis are described in van't Veer,iet al. (2002 Nature 415:530-536) and Hughes, et al. (2001 Nature Biotechnol. 19:342-7).
Experiments were conducted comparing gene expression profiles of primary hepatocytes, primary human macrophage and THP-1 cells treated with a variety of compounds known to activate the LXR and PPAR nuclear receptor regulated pathways. Additional compound treatments were performed which are known to cause an increase, or decrease in cellular cholesterol. All cells were cultured at 37° C. in a humidified atmosphere consisting of 95% air and 5% carbon dioxide. For each cell sample, mRNA was extracted and purified using Trizol reagent (Invitrogen Corporation, Carlsbad, Calif.) followed by DNAse treatment, as described by Fu, et al. (2001 J. Biol. Chem. 276:38378-87). For the primary hepatocytes, the Trizol purification was followed by a RNasy DNAase (Promega Corp, Madison, Wis.) step per the manufacturer's instructions. […]

Structures are written as SMILES.

For `CC(=O)Oc1ccc2c(c1)[C@@]1(C)CCC[C@](C)(C(=O)OC(=O)[C@@]3(C)CCC[C@]4(C)c5cc(OC(C)=O)ccc5CC[C@@H]34)[C@@H]1CC2` [APD, acetylpodocarpic dimer], the “Transcription of the LXRLI1 gene” value is on record as “induced”.
